Converted amounts (≈) assume the structure as drawn.
What was measured:
Type in all cases: cell-based
P. aeruginosa 209 = assay: MIC by broth microdilution, P. aeruginosa 209; settings: Pseudomonas aeruginosa, 35° C., 18-24 h
Method: (§1) Minimal inhibitory concentrations (MIC) were determined by the broth microdilution method in accordance with the Clinical and Laboratory Standards Institute (CLSI) guidelines. In brief, organism suspensions were adjusted to a 0.5 McFarland standard to yield a final inoculum between 3×10^5 and 7×10^5 colony-forming units (CFU)/mL. Drug dilutions and inocula were made in sterile, cation adjusted Mueller-Hinton Broth (Beckton Dickinson). An inoculum volume of 100 μL was added to wells containing 100 μL of broth with 2-fold serial dilutions of drug. All inoculated microdilution trays were incubated in ambient air at 35° C. for 18-24 h. […] Performance of the assay was monitored by the use of laboratory quality-control strains and levofloxacin, a compound with a defined MIC spectrum, in accordance with CLSI guidelines.

[1] = test system: P. aeruginosa 210 delta mexAB-OprM; assay: MIC by broth microdilution, P. aeruginosa 210 delta mexAB-OprM; settings: Pseudomonas aeruginosa, read-out: MIC P. aeruginosa 210 delta mexAB-OprM
Method: as §1

[2] = test system: E. coli delta to IC mutant; assay: MIC by broth microdilution, E. coli delta tolC mutant; settings: Escherichia coli, read-out: MIC E. coli delta to IC mutant
Method: as §1

E. coli imp mutant = assay: MIC by broth microdilution, E. coli imp mutant; settings: Escherichia coli, read-out: MIC E. coli imp mutant
Method: as §1

S. aureus ATCC 29213 = assay: MIC by broth microdilution, S. aureus ATCC 29213; settings: Staphylococcus aureus, ATCC29213; 35° C., 18-24 h
Method: as §1

E. coli ATCC 25922 = assay: MIC by broth microdilution, E. coli ATCC 25922, no FBS; settings: Escherichia coli, ATCC25922, 35° C., 18-24 h
Method: as §1

E. coli BW25113 = assay: MIC by broth microdilution, E. coli BW25113, no FBS; settings: Escherichia coli, 35° C., 18-24 h
Method: as §1

| SMILES | MIC (P. aeruginosa 209) [µg/mL] | MIC [1] [µg/mL] | MIC [2] [µg/mL] | MIC (E. coli imp mutant) [µg/mL] | MIC (S. aureus ATCC 29213) [µg/mL] | MIC (E. coli ATCC 25922) [µg/mL] | MIC (E. coli BW25113) [µg/mL] |
| --- | --- | --- | --- | --- | --- | --- | --- |
| Cc1nc(C(=O)O)c(O)c(=O)n1CC(O)c1ccc(C#Cc2ccccc2)cc1 (stereo not drawn) [Compound 90] | > 32 | > 32 | 8 to 32 (≈ 20.5 to 82 µM) | 1 to 8 (≈ 2.56 to 20.5 µM) | > 32 | > 32 | > 32 |
| CNC(=O)c1nc(C)n(CC(O)c2ccc(-c3ccccc3)cc2)c(=O)c1O (stereo not drawn) [Compound 91, 1-(2-([1,1′-biphenyl]-4-yl)-2-hydroxyethyl)-5-hydroxy-N,2-dimethyl-6-oxo-1,6-dihydropyrimidine-4-carboxamide] | > 32 | > 32 | 8 to 32 (≈ 21.1 to 84.3 µM) | > 32 | 8 to 32 (≈ 21.1 to 84.3 µM) | > 32 | > 32 |
| Cc1nc(CO)c(O)c(=O)n1CC(O)c1ccc(-c2ccccc2)cc1 (stereo not drawn) [Compound 92] | > 32 |  |  |  | > 32 | > 32 |  |
| Cc1nc(C(=O)O)c(O)c(=O)n1CC(O)c1ccc(C#Cc2ccc(CN3CCOCC3)cc2)cc1 (stereo not drawn) [Compound 93] | > 32 | > 32 | > 32 | > 32 | > 32 | > 32 | > 32 |
| Cn1cc(O)c(=O)cc1CNC(=O)c1ccc(C#Cc2ccccc2)cc1 [Compound 94] | > 32 | > 32 | > 32 | > 32 | > 32 | > 32 | > 32 |
| Cc1nc(C(=O)O)c(O)c(=O)n1C/C(=N/O)c1ccc(-c2ccccc2)cc1 [Compound 95, (E)-1-(2-([1,1′-biphenyl]-4-yl)-2-(hydroxyimino)ethyl)-5-hydroxy-2-methyl-6-oxo-1,6-dihydropyrimidine-4-carboxylic acid] | > 32 | > 32 | > 32 | 8 to 32 (≈ 21.1 to 84.3 µM) | > 32 | > 32 | > 32 |
| O=c1[nH]cnc(CNc2ccc(-c3ccccc3)cc2)c1O [Compound 96] | > 32 | > 32 | > 32 | > 32 | > 32 | > 32 | > 32 |
| O=c1[nH]cnc(CCc2ccc(C#Cc3ccc(CN4CCOCC4)cc3)cc2)c1O [Compound 104, 5-hydroxy-6-(4-((4-(morpholinomethyl)phenyl)ethynyl)phenethyl)pyrimidin-4(3H)-one] |  |  | 1 to 8 (≈ 2.41 to 19.3 µM) | 8 to 32 (≈ 19.3 to 77 µM) |  | 8 to 32 (≈ 19.3 to 77 µM) |  |
| O=c1c(O)cncn1CCc1ccc(C#Cc2ccc(CN3CCOCC3)cc2)cc1 [Compound 105, 5-hydroxy-3-(4-((4-(morpholinomethyl)phenyl)ethynyl)phenethyl)pyrimidin-4(3H)-one] |  |  | 1 to 8 (≈ 2.41 to 19.3 µM) | 1 to 8 (≈ 2.41 to 19.3 µM) |  | 8 to 32 (≈ 19.3 to 77 µM) |  |
| N#CC(Cc1ccc(C#Cc2ccc(CN3CCOCC3)cc2)cc1)n1cncc(O)c1=O (stereo not drawn) [Compound 106] |  |  | < 1 | 8 to 32 (≈ 18.2 to 72.6 µM) |  | > 32 |  |
| CC(=O)C(Cc1ccc(C#Cc2ccc(CN3CCOCC3)cc2)cc1)n1cncc(O)c1=O (stereo not drawn) [Compound 107] |  |  | 8 to 32 (≈ 17.5 to 69.9 µM) | > 32 |  | > 32 |  |
| CC(O)C(Cc1ccc(C#Cc2ccc(CN3CCOCC3)cc2)cc1)n1cncc(O)c1=O (stereo not drawn) [Compound 108] |  |  | 8 to 32 (≈ 17.4 to 69.6 µM) | 8 to 32 (≈ 17.4 to 69.6 µM) |  | > 32 |  |
| CC(C)(O)C(Cc1ccc(C#Cc2ccc(CN3CCOCC3)cc2)cc1)c1nc[nH]c(=O)c1O (stereo not drawn) [Compound 112] |  |  | < 1 | 1 to 8 (≈ 2.11 to 16.9 µM) |  | 8 to 32 (≈ 16.9 to 67.6 µM) |  |
| O=c1[nH]cnc(CN(CCO)c2ccc(C#Cc3ccc(CN4CCOCC4)cc3)cc2)c1O [Compound 113] |  |  | > 32 | > 32 |  | > 32 |  |
| O=c1c(O)cccn1C(CO)Cc1ccc(C#Cc2ccc(CN3CCOCC3)cc2)cc1 (stereo not drawn) [Compound 114, 3-hydroxy-1-(1-hydroxy-3-(4-((4-(morpholinomethyl)phenyl)ethynyl)phenyl)propan-2-yl)pyridin-2(1H)-one] |  |  | 1 to 8 (≈ 2.25 to 18 µM) | 1 to 8 (≈ 2.25 to 18 µM) |  | 8 to 32 (≈ 18 to 72 µM) |  |

Source: patent US10875832B2, “Substituted pyrimidines for treating bacterial infections” (FORGE THERAPEUTICS, INC., priority 2015, dated 2020)
